Structures can show the parent of a compound that is named as a salt.
Legend:
Type in all cases: physicochemical
Solubility in water = assay: Solubility in water
[1] = Particle size of sildenafil free base, Mastersizer 2000 (Malvern), wet method
Method: (§1) A preparative experimentation was conducted to analyze the particle size of a sildenafil free base and the characteristics thereof in several film preparations depending on the rpm conditions (3,000 or 5,000 rpm) of a homogenizer (AGI homomixer) and homogenization times (0, 10 and 30 minutes), the film preparations having the same compositions as the Examples shown in Table 6.
First, the raw materials of a sildenafil free base before homogenization were measured for their particle size using Mastersizer 2000 (Malvern) by a wet method, and the results thereof are shown in Table 1. The same procedure was repeated three times.
The particle size changes of a sildenafil free base depending on homogenization times were measured under the condition of a larger scale than the previous experimentation. The homogenization was carried out using a homogenizer (IKA) at 5,000 rpm with increasing homogenization time. The sildenafil free base-containing film preparations used in the homogenization had the same compositions as the Examples shown in Table 6.
(§2) In order to prepare films containing sildenafil free base particles having a smaller size, the film preparation having the same compositions as the Example 8 shown in Table 6 were subject to homogenization using a homogenizer (IKA) at 10,000 rpm for 1 hour.

[2] = Visual characteristics of the film prepared (particles, transparency)
Method: as §1, §2

[3] = after homogenization 3000 rpm, 30 minutes
[4] = after homogenization 5000 rpm, 10 minutes
[5] = sildenafil free base raw material before homogenization (Initial)

SMILES	Solubility in water (Solubility in water)	Particle size D10 [1, 3] [μm]	Particle size D90 [1, 3] [μm]	Particle size D10 [1, 4] [μm]	Particle size D90 [1, 4] [μm]	D10 [1, 5] [μm]	D90 [1, 5] [μm]	Characteristics ([2]; 3000 rpm, 30 minutes)	Characteristics ([2]; 5000 rpm, 10 minutes)
CCCc1nn(C)c2c(=O)[nH]c(-c3cc(S(=O)(=O)N4CCN(C)CC4)ccc3OCC)nc12 [sildenafil citrate]	can dissolve in water	–	–	–	–	–	–	–	–
CCCc1nn(C)c2c(=O)[nH]c(-c3cc(S(=O)(=O)N4CCN(C)CC4)ccc3OCC)nc12 [sildenafil free base]	practically insoluble in water	8.91	109.66	8.59	85.99	13.48	281.74	Particles were visually observed	Particles were scarcely observed

Reference: patent US9907759B2, “Sildenafil-free base-containing film preparation and method for producing same” (CTC Bio, Inc., priority 2011, dated 2018)
